Reference: patent publication US5885993A, “Remedy for pancreatitis” (Nippon Shinyaku Company, Limited, priority 1995, dated 1999)

Tests used:
[1] = test system: Cn+St pancreatitis; experiment: Antipancreatitis activity: severity of pancreatitis and wet weight of pancreas in Cn+St pancreatitis (cerulein plus water immersion stress); type: in vivo, SD rats (female, 12-week-old); settings: for Wet weight of pancreas / Severity of pancreatitis: oral gavage 18 and 2 hours before first Cn dosing, mean ± S.E.; for Severity of pancreatitis: score
Text: The antipancreatitis action of the compound of the invention was confirmed in a test using rats as described hereinafter. The test protocol used is the most popular of all of the test protocols available for the evaluation of therapeutic drugs for pancreatitis in animals. A high correlation has been reported to hold between the antipancreatitis effect found by this test and the clinical effect in man [Yamaguchi et al.: Association of stresses in the onset of pancreatitis, Shoukakika, 18(2), 186-196, 1994). Female 12-week-old SD rats were used in groups of 10 individuals. After 40 μg/kg of cerulein (Cn) was administered intraperitoneally, the animals were placed in stress cages and immersed down to the xiphoid in a constant-temperature bath at 23° C. One hour later, 40 μg/kg of Cn was administered i.p. again and the stress loading was continued. After 5 hours of stress loading, the animals were sacrificed and laparotomized and the severity of pancreatitis was scored in accordance with the evaluation criteria proposed by Yamaguchi et al. (Gastroenterology 98: 1682-1688, 1990). In addition, the pancreas was excised and its wet weight was determined. As the test compounds, compounds 1, 2, 3, and 4 were administered by oral gavage 18 and 2 hours before the first Cn dosing. As a control compound, irsogladine maleate was used. Statistical significance was tested by Wilcoxon rank sum test for the severity and by Dunnett test for the wet weight.

[2] = test system: male mice (BALB/c); experiment: Acute toxicity; type: in vivo; settings: monitored for 1 week
Method: Six-week-old male mice (BALB/c) fasted in advance was orally dosed with 1 g/kg or 500 mg/kg of the test compound and the time course of mortality was monitored for 1 week. The test compound was suspended in 0.5% aqueous methylcellulose solution and administered in the dose of 500 or 1,000 mg/20 ml/kg. […] The toxicity of the compound of the invention is, thus, extremely low.

[3] = Effect on body weight gain; type: in vivo, SD rats (male, 6-week-old); settings: 1000 mg/kg orally daily for 2 consecutive weeks
Method: Compound 1 was administered orally to 6-week-old male SD rats (in groups of 5) daily to investigate its effect on body weight gain.

[4] = test system: cerulein-induced acute pancreatitis; settings: Proceedings of the 36th Congress of The Japanese Society of Gastroenterology, p.266; cited from earlier work

Row | Compound | Wet weight of pancreas ([1]; 10 mg/kg) [g/kg] | Severity of pancreatitis ([1]; 10 mg/kg) | Wet weight of pancreas ([1]; 30 mg/kg) [g/kg] | Severity of pancreatitis ([1]; 30 mg/kg) | Wet weight of pancreas ([1]; 100 mg/kg) [g/kg] | Severity of pancreatitis ([1]; 100 mg/kg) | mortality ([2]; 1 g/kg oral) | effect on body weight gain [3] | Wet weight of pancreas ([1]; 1 mg/kg) [g/kg] | Severity of pancreatitis ([1]; 1 mg/kg) | Wet weight of pancreas ([1]; 3 mg/kg) [g/kg] | Severity of pancreatitis ([1]; 3 mg/kg) | mortality ([2]; 500 mg/kg oral) | efficacy in Cn-induced acute pancreatitis (in words) [4] | minimal effective dose ([1]; Rattus norvegicus, only at this dose (10, 30, 100 mg/kg tested), oral, read-out: dose showing a significant reducing effect on the severity of pancreatitis) [mg/kg] | effect on wet weight (swelling) of pancreas relative to comparator, in words ([1]; compound of the invention versus control compound irsogladine maleate) | inhibitory activity in Cn+St pancreatitis (in words) ([1]; rat model, cerulein plus water immersion stress loading)
1 | Nc1nc(-c2cc(Cl)ccc2Cl)nc(N(CCO)CCO)n1 [Compound 1, 2-Amino-4-[N,N-bis(2-hydroxyethyl)amino]-6-(2,5-dichlorophenyl)-1,3,5-triazine] | 9.33 ± 0.66 | 1.4 ± 0.22 | 7.13 ± 0.57 | 0.6 ± 0.22 | 5.65 ± 0.40 | 0.3 ± 0.21 | no death was encountered | did not affect the body weight gain of rats |  |  |  |  |  |  |  |  | 
2 | Cl.Nc1nc(-c2cc(Cl)ccc2Cl)nc(N2CCC[C@H]2CO)n1 [Compound 2, (S)-2-amino-4-(2,5-dichlorophenyl)-6-(2-hydroxymethyl-1-pyrrolidinyl)-1,3,5-triazine hydrochloride] | 7.31 ± 0.64 | 0.4 ± 0.16 | 4.35 ± 0.32 | 0.1 ± 0.03 |  |  |  |  | 6.86 ± 0.41 | 1.3 ± 0.30 | 6.83 ± 0.48 | 0.8 ± 0.29 | no death was encountered |  |  |  | 
3 | Nc1nc(-c2cc(Cl)ccc2Cl)nc(N2C[C@H](O)C[C@H]2CO)n1 [Compound 3, 2-Amino-4-(2,5-dichlorophenyl)-6-[(2S,4R)-2-hydroxymethyl-4-hydroxy-1-pyrrolidinyl]-1,3,5-triazine] | 6.67 ± 0.37 | 0.7 ± 0.08 | 5.96 ± 0.70 | 0.6 ± 0.08 |  |  | no death was encountered |  |  |  | 7.58 ± 0.36 | 1.4 ± 0.10 |  |  |  |  | 
4 | Nc1nc(-c2cc(Cl)ccc2Cl)nc(N2CCOCC2)n1 [Compound 4, 2-Amino-4-(2,5-dichlorophenyl)-6-morpholino-1,3,5-triazine] | 7.33 ± 0.23 | 0.9 ± 0.28 | 6.18 ± 0.53 | 0.5 ± 0.22 | 7.49 ± 0.47 | 0.5 ± 0.17 | no death was encountered |  |  |  |  |  |  |  |  |  | 
5 | Nc1nc(N)nc(-c2cc(Cl)ccc2Cl)n1.O=C(O)/C=C\C(=O)O [irsogladine maleate, 2,4-diamino-6-(2,5-dichlorophenyl)-1,3,5-triazine maleate, reference compound] | 10.09 ± 0.51 | 2.2 ± 0.33 | 8.52 ± 0.60 | 1.5 ± 0.27 | 7.14 ± 0.58 | 0.4 ± 0.22 |  |  |  |  |  |  |  | proved efficacious | 100 | almost equivalent to the compound of the invention in the effect on wet weight of pancreas | only moderate activity
